pEC50: −log10 of the molar value. Like-named read-outs stand apart in the source and are kept apart here. One block for each molecule: values may come before it.
Experiments:
human GLP-1R = biological target: T1, human GLP-1R (Homo sapiens, UniProt P43220); experiment: cAMP receptor activation assay, human GLP-1R cloned into CHO cells (DiscoverX LeadHunter / cAMP Hunter); type: cell-based; conditions: for Selectivity Ratio GLP-1R vs GCGR: SR = GCGR EC50/GLP-1 EC50, 0.1% BSA
T1 construct: host or cells: CHO-K1

GCGR = GCGR (Homo sapiens, UniProt P47871); experiment: cAMP receptor activation assay, human GCGR cloned into CHO cells (DiscoverX LeadHunter / cAMP Hunter); type: cell-based; parameters: host or cells: CHO-K1
[1] = ratio of EC50 in 0.1% BSA and 0.1% ovalbumin
[2] = cAMP, CHO cells, 0.1% BSA containing buffers, read-out: pEC50 (SE) huGCGR (converted)

Sequence of GCGR (P47871 26-477): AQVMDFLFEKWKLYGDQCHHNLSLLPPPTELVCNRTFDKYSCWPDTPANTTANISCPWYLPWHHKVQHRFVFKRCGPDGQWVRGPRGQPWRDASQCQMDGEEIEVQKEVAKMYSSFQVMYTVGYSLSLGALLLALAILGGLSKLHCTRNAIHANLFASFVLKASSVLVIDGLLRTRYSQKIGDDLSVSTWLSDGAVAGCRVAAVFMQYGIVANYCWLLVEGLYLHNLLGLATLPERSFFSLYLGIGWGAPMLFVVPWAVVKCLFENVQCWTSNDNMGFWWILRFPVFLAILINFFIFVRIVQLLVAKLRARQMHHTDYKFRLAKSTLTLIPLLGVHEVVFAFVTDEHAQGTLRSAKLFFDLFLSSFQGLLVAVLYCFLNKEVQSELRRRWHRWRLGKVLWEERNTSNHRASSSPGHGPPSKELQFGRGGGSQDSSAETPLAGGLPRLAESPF
T1 sequence (P43220 24-463): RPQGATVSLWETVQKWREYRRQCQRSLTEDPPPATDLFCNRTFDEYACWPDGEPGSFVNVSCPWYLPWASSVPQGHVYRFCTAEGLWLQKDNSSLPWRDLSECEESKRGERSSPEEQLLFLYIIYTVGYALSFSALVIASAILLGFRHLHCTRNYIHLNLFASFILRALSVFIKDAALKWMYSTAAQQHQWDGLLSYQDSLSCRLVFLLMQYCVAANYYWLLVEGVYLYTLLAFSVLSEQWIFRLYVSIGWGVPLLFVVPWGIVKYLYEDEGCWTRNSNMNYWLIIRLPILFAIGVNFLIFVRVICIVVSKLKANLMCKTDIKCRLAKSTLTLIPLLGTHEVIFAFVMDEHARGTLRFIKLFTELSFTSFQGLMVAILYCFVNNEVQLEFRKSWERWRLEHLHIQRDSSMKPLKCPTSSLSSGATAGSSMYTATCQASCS

Molecule: CCCCCCCCCCCCCCCCO[C@@H]1O[C@H](CO[C@H]2O[C@H](C(=O)NCCCC[C@@H]3NC(=O)[C@@H](NC(=O)[C@H](CC(=O)O)NC(=O)[C@H](CC(C)C)NC(=O)[C@H](Cc4ccc(O)cc4)NC(=O)[C@H](CCCCN)NC(=O)[C@H](CO)NC(=O)[C@H](Cc4ccc(O)cc4)NC(=O)[C@H](CC(=O)O)NC(=O)[C@H](CO)NC(=O)[C@@H](NC(=O)[C@H](Cc4ccccc4)NC(=O)[C@@H](NC(=O)CNC(=O)[C@H](CCC(N)=O)NC(=O)C(C)(C)NC(=O)[C@@H](N)Cc4c[nH]cn4)[C@@H](C)O)[C@@H](C)O)CCC(=O)NCCCC[C@@H](C(=O)N[C@@H](CCC(=O)O)C(=O)N[C@@H](Cc4ccccc4)C(=O)N[C@H](C(=O)N[C@@H](CCC(N)=O)C(=O)N[C@@H](Cc4c[nH]c5ccccc45)C(=O)N[C@@H](CC(C)C)C(=O)N[C@@H](CC(C)C)C(=O)N[C@@H](CCC(N)=O)C(=O)N[C@H](C(N)=O)[C@@H](C)O)[C@@H](C)CC)NC(=O)[C@H](C)NC(=O)[C@H](C)NC3=O)[C@H](O)[C@H](O)[C@H]2O)[C@@H](O)[C@H](O)[C@H]1O [EU-A1588]
Ovalbumin vs. BSA - fold improv/worsen GLP-1 R (human GLP-1R; [1]): 5 fold | Ovalbumin vs. BSA - fold improv/worsen GCG R (GCGR; [1]): 6 fold

EC50 (human GLP-1R; EC50 cAMP GLP-1 R (pM) 0.1% BSA, Table 5, 0.1% BSA): 162 pM | EC50 (GCGR; EC50 cAMP glucagon R (pM) 0.1% BSA, Table 5, 0.1% BSA): 461 pM
Molecule: CC[C@H](C)[C@H](NC(=O)[C@H](Cc1ccccc1)NC(=O)[C@H](CCC(=O)O)NC(=O)[C@@H]1CCCCNC(=O)CC[C@H](NC(=O)[C@H](CC(=O)O)NC(=O)[C@H](CC(C)C)NC(=O)[C@H](Cc2ccc(O)cc2)NC(=O)[C@H](CCCCN)NC(=O)[C@H](CO)NC(=O)[C@H](Cc2ccc(O)cc2)NC(=O)[C@H](CC(=O)O)NC(=O)[C@H](CO)NC(=O)[C@@H](NC(=O)[C@H](Cc2ccccc2)NC(=O)[C@@H](NC(=O)CNC(=O)[C@H](CCC(N)=O)NC(=O)C(C)(C)NC(=O)[C@@H](N)Cc2c[nH]cn2)[C@@H](C)O)[C@@H](C)O)C(=O)N[C@@H](CCC(N)=O)C(=O)N[C@@H](C)C(=O)N[C@@H](C)C(=O)N1)C(=O)N[C@@H](CCCCNC(=O)[C@H]1O[C@@H](OCCCCCCCCCCCCCCCC(=O)O)[C@H](O)[C@@H](O)[C@@H]1O)C(=O)N[C@@H](Cc1c[nH]c2ccccc12)C(=O)N[C@@H](CC(C)C)C(=O)N[C@@H](CC(C)C)C(=O)N[C@@H](CCC(N)=O)C(=O)N[C@H](C(N)=O)[C@@H](C)O [EU-A1871]

EC50 (human GLP-1R; read-out: EC50 cAMP GLP-1 R (pM) 0.1% BSA, Table 5, 0.1% BSA): 1270 pM | EC50 (human GLP-1R; read-out: EC50 cAMP GLP-1 R (pM) 0.1% BSA, Table 6, 0.1% BSA): 1270 pM | EC50 (GCGR; read-out: EC50 cAMP glucagon R (pM) 0.1% Ovalb, Table 5, 0.1% ovalbumin): 86 pM
Molecule: CC[C@H](C)[C@H](NC(=O)[C@H](Cc1ccccc1)NC(=O)[C@H](CCC(=O)O)NC(=O)[C@@H]1CCCCNC(=O)CC[C@H](NC(=O)[C@H](CC(=O)O)NC(=O)[C@H](CC(C)C)NC(=O)[C@H](Cc2ccc(O)cc2)NC(=O)[C@H](CCCCN)NC(=O)[C@H](CO)NC(=O)[C@H](Cc2ccc(O)cc2)NC(=O)[C@H](CC(=O)O)NC(=O)[C@H](CO)NC(=O)[C@@H](NC(=O)[C@H](Cc2ccccc2)NC(=O)[C@@H](NC(=O)CNC(=O)[C@H](CCC(N)=O)NC(=O)C(C)(C)NC(=O)[C@@H](N)Cc2c[nH]cn2)[C@@H](C)O)[C@@H](C)O)C(=O)N[C@@H](CCC(N)=O)C(=O)N[C@@H](C)C(=O)N[C@@H](C)C(=O)N1)C(=O)N[C@@H](CCCCNC(=O)[C@H]1O[C@@H](OCCCCCCCCCCCCCCCCCC(=O)O)[C@H](O)[C@@H](O)[C@@H]1O)C(=O)N[C@@H](Cc1c[nH]c2ccccc12)C(=O)N[C@@H](CC(C)C)C(=O)N[C@@H](CC(C)C)C(=O)N[C@@H](CCC(N)=O)C(=O)N[C@H](C(N)=O)[C@@H](C)O [EU-A1872]

Selectivity Ratio GLP-1R vs GCGR (human GLP-1R): 3 | pEC50 (human GLP-1R; cAMP, CHO cells, 0.1% BSA containing buffers, read-out: EC50 hGLP-1R): 11.10 | EC50 (human GLP-1R; cAMP, CHO cells, 0.1% BSA containing buffers, read-out: pEC50 (SE) hu GLP-1 (converted)): 8.51 pM | EC50 (GCGR; [2]): 20 pM
Molecule: CCCCCCCCO[C@@H]1O[C@H](C(=O)NCCCC[C@H](NC(=O)[C@@H](NC(=O)[C@H](Cc2ccccc2)NC(=O)[C@H](CCC(=O)O)NC(=O)[C@@H]2CCCCNC(=O)CC[C@H](NC(=O)[C@H](CC(=O)O)NC(=O)[C@H](CC(C)C)NC(=O)[C@H](Cc3ccc(O)cc3)NC(=O)[C@H](CCCCN)NC(=O)[C@H](CO)NC(=O)[C@H](Cc3ccc(O)cc3)NC(=O)[C@H](CC(=O)O)NC(=O)[C@H](CO)NC(=O)[C@@H](NC(=O)[C@H](Cc3ccccc3)NC(=O)[C@@H](NC(=O)CNC(=O)[C@H](CCC(N)=O)NC(=O)C(C)(C)NC(=O)[C@@H](N)Cc3c[nH]cn3)[C@@H](C)O)[C@@H](C)O)C(=O)N[C@@H](CCC(N)=O)C(=O)N[C@@H](C)C(=O)N[C@@H](C)C(=O)N2)[C@@H](C)CC)C(=O)N[C@@H](Cc2c[nH]c3ccccc23)C(=O)N[C@@H](CC(C)C)C(=O)N[C@@H](CC(C)C)C(=O)N[C@@H](CCC(N)=O)C(=O)N[C@H](C(N)=O)[C@@H](C)O)[C@@H](O)[C@H](O)[C@H]1O [analogue 1]

EC50 (GCGR; [2]): 28.8 pM
Molecule: CCCCCCCCCCCCO[C@@H]1O[C@H](C(=O)NCCCC[C@H](NC(=O)[C@@H](NC(=O)[C@H](Cc2ccccc2)NC(=O)[C@H](CCC(=O)O)NC(=O)[C@@H]2CCCCNC(=O)CC[C@H](NC(=O)[C@H](CC(=O)O)NC(=O)[C@H](CC(C)C)NC(=O)[C@H](Cc3ccc(O)cc3)NC(=O)[C@H](CCCCN)NC(=O)[C@H](CO)NC(=O)[C@H](Cc3ccc(O)cc3)NC(=O)[C@H](CC(=O)O)NC(=O)[C@H](CO)NC(=O)[C@@H](NC(=O)[C@H](Cc3ccccc3)NC(=O)[C@@H](NC(=O)CNC(=O)[C@H](CCC(N)=O)NC(=O)C(C)(C)NC(=O)[C@@H](N)Cc3c[nH]cn3)[C@@H](C)O)[C@@H](C)O)C(=O)N[C@@H](CCC(N)=O)C(=O)N[C@@H](C)C(=O)N[C@@H](C)C(=O)N2)[C@@H](C)CC)C(=O)N[C@@H](Cc2c[nH]c3ccccc23)C(=O)N[C@@H](CC(C)C)C(=O)N[C@@H](CC(C)C)C(=O)N[C@@H](CCC(N)=O)C(=O)N[C@H](C(N)=O)[C@@H](C)O)[C@@H](O)[C@H](O)[C@H]1O [analogue 3]

Molecule: CCCCCCCCCCCCCCCCCCO[C@@H]1O[C@H](C(=O)NCCCC[C@H](NC(=O)[C@@H](NC(=O)[C@H](Cc2ccccc2)NC(=O)[C@H](CCC(=O)O)NC(=O)[C@@H]2CCCCNC(=O)CC[C@H](NC(=O)[C@H](CC(=O)O)NC(=O)[C@H](CC(C)C)NC(=O)[C@H](Cc3ccc(O)cc3)NC(=O)[C@H](CCCCN)NC(=O)[C@H](CO)NC(=O)[C@H](Cc3ccc(O)cc3)NC(=O)[C@H](CC(=O)O)NC(=O)[C@H](CO)NC(=O)[C@@H](NC(=O)[C@H](Cc3ccccc3)NC(=O)[C@@H](NC(=O)CNC(=O)[C@H](CCC(N)=O)NC(=O)C(C)(C)NC(=O)[C@@H](N)Cc3c[nH]cn3)[C@@H](C)O)[C@@H](C)O)C(=O)N[C@@H](CCC(N)=O)C(=O)N[C@@H](C)C(=O)N[C@@H](C)C(=O)N2)[C@@H](C)CC)C(=O)N[C@@H](Cc2c[nH]c3ccccc23)C(=O)N[C@@H](CC(C)C)C(=O)N[C@@H](CC(C)C)C(=O)N[C@@H](CCC(N)=O)C(=O)N[C@H](C(N)=O)[C@@H](C)O)[C@@H](O)[C@H](O)[C@H]1O [analogue 6]
Selectivity Ratio GLP-1R vs GCGR (human GLP-1R): 17 | Selectivity Ratio (SR=GCGR EC50/GLP-1 EC50) (GCGR): 17 | pEC50 (GCGR; text on Table 17, read-out: EC50 values for GCGR): 9.05

Molecule: exendin-4 [reference compound]
Fold Improvement GLP-1R (human GLP-1R): 1 | fold improvement on replacing BSA (0.1%) with OVA (0.1%) (human GLP-1R): negligible
